Reference: patent US20240002368A1 (QILU REGOR THERAPEUTICS INC., priority 2020, published 2024)
Like-named read-outs stand apart in the source and are kept apart here.

System: STING pathway
Assay: IFN β reporter assay (HTRF, 2′3′-cGAMP-stimulated THP1 cells)
Format: cell-based, human
Settings: Homo sapiens
Protocol: STING pathway deactivation by the compounds described herein was measured using THP1 cells. The THP1 Cells (obtained from ATCC, Cat #TIB-202) were maintained in RPMI-1640 (Gibco, Cat #22400105), 10% FBS, 1% Pen-Strep, 0.05 mM 2-mercaptoethanol. For STING activation, 2′3′-cGAMP (MW 718.38, obtained from Invivogen) was used and prepared in serum-free RPMI-1640 media. Growth media: RPMI-1640 (HEPES, glutamine), 10% FBS, 1% Pen-Strep, 0.05 mM 2-mercaptoethanol. Assay media: RPMI-1640 (HEPES, glutamine), 0.5% FBS. 2′3′-cGAMP: Dissolve 2′3′-cGAMP to 10 mM stock in H2O.
The cells were prepared and seeded at 100K, 90 μL/well with assay media in cell culture plate (Greiner 655180). The compounds were added in 96-well tissue culture plates by Tecan D300e for a final concentration of 0.00137-3 μM.
Lipo2000/3000 and 2′3′-cGAMP stock solutions were diluted respectively in serum-free RPMI-1640 media. The diluted 2′3′-cGAMP and Lipo (V/V=1:1) were mixed and stood for 15 min at room temperature. 10 μL 2,3-cGAMP/Lipofectamine (10×) was transferred to the 96-well assay plate with a final 2′3′-cGAMP concentration of 5 μM. The cell plates were centrifuged at 1000 rpm for 5 min after incubating at 37° C., 5% CO2 overnight.
All reagents (human IFN beta kit, Cisbio 62HIFNBPEG) were warmed to room temperature for at least 30 min before the assay. The instructions of the kit were followed to prepare the detection media. 14 μL of cell supernatants was transferred into their dedicated wells in 384-well plate. Then 2 μL of the activation reagent solution and 4 μL of the mixed antibody solution were added to all wells. The plate was sealed and incubated for 3 h at room temperature.
The HTRF signal was read in Envision (PerkinElmer). IFN β reporter activity was then measured. The calculated ratio is the signal at 665 nm/signal at 615 nm. IC50 values are calculated by using standard methods known in the art.

[1] = THP-1, THP1 cells, 5 μM 2′3′-cGAMP, IFN β secretion inhibition, class symbols, read-out: IFN β reporter activity IC50
[2] = THP-1, read-out: IFN β reporter activity IC50

Question: With `O=C(Nc1c[nH]c2ccccc12)c1n[nH]c2cc(C3CCOCC3)ccc12` [Example 16] as the molecule, how does the IC50 [1] read?
Answer: 50 to 200 nM

Question: How did the IC50 [1] turn out when `Cn1cc(C(=O)Nc2c[nH]c3ccc(F)cc23)c2cc(F)c(CN3CCOCC3)cc21` [Example 95] was run?
Answer: 200 to 1000 nM

Question: With `N#Cc1ccc2[nH]cc(NC(=O)c3cn(C4COC4)c4cc(C5=CCOCC5)c(F)cc34)c2c1` [Example 112, N-(5-cyano-1H-indol-3-yl)-6-(3,6-dihydro-2H-pyran-4-yl)-5-fluoro-1-(oxetan-3-yl)indole-3-carboxamide] as the molecule, how does the IC50 [2] read?
Answer: 50 to 200 nM

Question: With `Cn1cc(C(=O)Nc2c[nH]c3ccc(C#N)cc23)c2cc(Cl)c(C3=CCOCC3)cc21` [Example 55] as the molecule, how does the IC50 [1] read?
Answer: 50 to 200 nM

Question: With `Cn1cc(C(=O)Nc2c[nH]c3cc(F)c(Cl)cc23)c2cc(F)c(C3CCOCC3)cc21` [Example 48] as the molecule, how does the IC50 [1] read?
Answer: 50 to 200 nM

Question: `Cn1cc(C(=O)Nc2c[nH]c3ccc(F)cc23)c2cc(F)c(C3CCOCC3)cc21` [Example 81] was tested. Which IC50 [1] did it give?
Answer: < 50 nM

Question: With `Cn1nc(C(=O)Nc2c[nH]c3ccccc23)c2ccc(C(F)(F)F)cc21` [Example 1, N-(1H-indol-3-yl)-1-methyl-6-(trifluoromethyl)indazole-3-carboxamide] as the molecule, how does the IC50 [2] read?
Answer: 50 to 200 nM

Question: Which IC50 [1] does the source give for `O=C(Nc1c[nH]c2ccc(F)cc12)c1c[nH]c2cc(C(F)(F)F)ccc12` [Example 53] here?
Answer: < 50 nM

Question: For `COCCOc1ccc2c(C(=O)Nc3c[nH]c4ccc(C#N)cc34)cn(C3CC3)c2n1` [Example 47], which IC50 [2] is on record?
Answer: 200 to 1000 nM

Question: For `O=C(Nc1c[nH]c2cc(F)c(F)cc12)c1nc2ccncc2s1` [Comparator B, reference compound], which IC50 (THP-1, THP1 cells, 5 μM 2′3′-cGAMP, IFN β secretion inhibition, numeric values (comparators), read-out: IFN β reporter activity IC50) is on record?
Answer: > 3000 nM

Question: For `CN1CC(n2cc(C(=O)Nc3c[nH]c4ccc(F)cc34)c3ccc(C(F)(F)F)cc32)C1` [Example 114, N-(5-fluoro-1H-indol-3-yl)-1-(1-methylazetidin-3-yl)-6-(trifluoromethyl)indole-3-carboxamide], which IC50 [2] is on record?
Answer: > 1000 nM

Question: Which IC50 [2] does the source give for `Cn1cc(C(=O)Nc2c[nH]c3ccc(F)cc23)c2ccc(C(F)(F)F)cc21` [Example 20] here?
Answer: < 50 nM

Question: Which IC50 [1] does the source give for `Cn1cc(C(=O)Nc2c[nH]c3cc(F)c(F)cc23)c2cc(F)c(CNCC(F)(F)F)cc21` [Example 106] here?
Answer: < 50 nM

Question: Which IC50 [1] does the source give for `Cn1cc(C(=O)Nc2c[nH]c3ccc(F)cc23)c2cc(F)c(CN3CCCCC3)cc21` [Example 99] here?
Answer: > 1000 nM

Question: Which IC50 [1] does the source give for `C#Cc1ccc2c(C(=O)Nc3c[nH]c4ccc(F)cc34)n[nH]c2c1` [Example 14] here?
Answer: 50 to 200 nM

Question: For `O=C(Nc1c[nH]c2ccc(F)cc12)c1n[nH]c2ncc(Br)cc12` [Example 7], which IC50 [1] is on record?
Answer: 50 to 200 nM

Question: `COC(=O)c1ccc2c(C(=O)Nc3c[nH]c4ccc(F)cc34)n[nH]c2c1` [Example 27] was tested. Which IC50 [1] did it give?
Answer: > 1000 nM

Question: `O=C(Nc1c[nH]c2ccc(F)cc12)c1n[nH]c2cc(C(F)(F)F)ccc12` [Example 8] was tested. Which IC50 [1] did it give?
Answer: < 50 nM

Question: How did the IC50 [1] turn out when `O=C(Nc1c[nH]c2cc(F)c(F)cc12)c1c[nH]c2ccccc12` [Example 64] was run?
Answer: 50 to 200 nM

Question: `O=C(Nc1c[nH]c2ccc(F)cc12)c1cnn2cc(Br)ccc12` [Example 24] was tested. Which IC50 [1] did it give?
Answer: < 50 nM

Question: For `Cn1cc(C(=O)Nc2c[nH]c3ccc(F)cc23)c2cc(F)c(C3=CCOCC3)cc21` [Example 80], which IC50 [1] is on record?
Answer: 50 to 200 nM

Question: With `Cn1cc(C(=O)Nc2c[nH]c3ccc(F)cc23)c2cc(F)c(CN3CCC(F)(F)CC3)cc21` [Example 98] as the molecule, how does the IC50 [1] read?
Answer: < 50 nM

Question: For `O=C(Nc1c[nH]c2ccccc12)c1n[nH]c2cc(C(F)(F)F)ccc12` [Example 31], which IC50 [1] is on record?
Answer: < 50 nM

Question: How did the IC50 [1] turn out when `CNCc1ccc2[nH]cc(NC(=O)c3cn(C)c4cc(C(F)(F)F)ccc34)c2c1` [Example 110, 1-methyl-N-(5-((methylamino)methyl)-1H-indol-3-yl)-6-(trifluoromethyl)-1H-indole-3-carboxamide] was run?
Answer: > 1000 nM

Question: How did the IC50 [1] turn out when `Cn1cc(C(=O)Nc2c[nH]c3ccc(C#N)cc23)c2ccc(C3=CCOCC3)cc21` [Example 54] was run?
Answer: 200 to 1000 nM

Question: `Cn1cc(C(=O)Nc2c[nH]c3ccc(N4CCN(C(=O)OC(C)(C)C)CC4=O)cc23)c2ccc(C(F)(F)F)cc21` [Example 38] was tested. Which IC50 [1] did it give?
Answer: 50 to 200 nM

Question: With `O=C(Nc1c[nH]c2cc(F)c(F)cc12)c1cc2ccc(Br)cn2n1` [Example 58] as the molecule, how does the IC50 [1] read?
Answer: 200 to 1000 nM

Question: How did the IC50 [1] turn out when `Cn1cc(C(=O)Nc2c[nH]c3ccc(F)cc23)c2ccc(C3CCOCC3)cc21` [Example 73] was run?
Answer: 50 to 200 nM
